# Measured values: BindingDB's records for doi:10.1021/jm0100537 (Glaxosmithkline, 2001)
# Experiments:
# Assay in all cases: Caspase Inhibition Assay
# Caspase-3 = target: T1, Caspase-3 (Homo sapiens, UniProt P42574)
# T1 sequence (P42574 whole entry): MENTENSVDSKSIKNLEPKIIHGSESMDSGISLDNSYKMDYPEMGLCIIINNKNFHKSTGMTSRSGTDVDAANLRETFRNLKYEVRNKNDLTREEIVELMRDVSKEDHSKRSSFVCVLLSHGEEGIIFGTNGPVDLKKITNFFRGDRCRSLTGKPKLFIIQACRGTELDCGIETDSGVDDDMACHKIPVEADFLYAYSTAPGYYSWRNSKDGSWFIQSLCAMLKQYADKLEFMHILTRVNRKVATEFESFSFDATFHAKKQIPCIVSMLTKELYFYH
# Caspase-9 = target: T2, Caspase-9 (Homo sapiens, UniProt P55211)
# T2 sequence (P55211 whole entry): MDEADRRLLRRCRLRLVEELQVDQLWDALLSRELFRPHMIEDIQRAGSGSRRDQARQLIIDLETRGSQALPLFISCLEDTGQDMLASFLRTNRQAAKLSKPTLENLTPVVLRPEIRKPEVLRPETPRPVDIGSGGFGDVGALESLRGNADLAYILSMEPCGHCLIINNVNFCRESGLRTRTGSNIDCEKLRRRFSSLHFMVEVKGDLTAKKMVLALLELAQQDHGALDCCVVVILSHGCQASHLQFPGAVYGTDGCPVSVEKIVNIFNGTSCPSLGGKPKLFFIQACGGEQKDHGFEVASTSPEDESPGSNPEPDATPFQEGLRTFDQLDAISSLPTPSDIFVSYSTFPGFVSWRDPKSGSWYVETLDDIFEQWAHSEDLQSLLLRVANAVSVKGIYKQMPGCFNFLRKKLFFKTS
# Caspase-8 = Caspase-8 (Homo sapiens, UniProt Q14790)
# Chain of Caspase-8 (Q14790 217-374 limits assumed): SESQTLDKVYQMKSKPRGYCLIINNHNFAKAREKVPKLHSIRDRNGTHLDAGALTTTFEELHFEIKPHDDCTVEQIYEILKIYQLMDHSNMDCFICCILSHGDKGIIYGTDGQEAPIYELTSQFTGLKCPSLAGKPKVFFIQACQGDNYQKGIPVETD
# Chain of Caspase-8 (Q14790 385-479 limits assumed): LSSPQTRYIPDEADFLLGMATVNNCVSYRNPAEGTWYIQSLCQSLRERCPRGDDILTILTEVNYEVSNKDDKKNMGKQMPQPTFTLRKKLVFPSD
# Caspase-4 = target: T3, Caspase-4 (Homo sapiens, UniProt P49662)
# T3 sequence (P49662 whole entry): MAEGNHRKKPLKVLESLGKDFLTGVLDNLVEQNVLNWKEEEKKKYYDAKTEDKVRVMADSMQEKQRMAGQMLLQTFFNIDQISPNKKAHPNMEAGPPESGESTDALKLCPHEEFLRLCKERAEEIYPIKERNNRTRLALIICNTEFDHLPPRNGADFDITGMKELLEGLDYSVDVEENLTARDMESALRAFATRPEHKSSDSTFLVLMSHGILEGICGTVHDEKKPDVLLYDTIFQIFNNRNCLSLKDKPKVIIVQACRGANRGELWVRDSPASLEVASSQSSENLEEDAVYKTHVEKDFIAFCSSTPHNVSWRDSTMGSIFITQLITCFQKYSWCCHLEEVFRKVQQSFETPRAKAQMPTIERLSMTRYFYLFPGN
# Caspase-1 = target: T4, Caspase-1 (Homo sapiens, UniProt P29466)
# T4 sequence (P29466 whole entry): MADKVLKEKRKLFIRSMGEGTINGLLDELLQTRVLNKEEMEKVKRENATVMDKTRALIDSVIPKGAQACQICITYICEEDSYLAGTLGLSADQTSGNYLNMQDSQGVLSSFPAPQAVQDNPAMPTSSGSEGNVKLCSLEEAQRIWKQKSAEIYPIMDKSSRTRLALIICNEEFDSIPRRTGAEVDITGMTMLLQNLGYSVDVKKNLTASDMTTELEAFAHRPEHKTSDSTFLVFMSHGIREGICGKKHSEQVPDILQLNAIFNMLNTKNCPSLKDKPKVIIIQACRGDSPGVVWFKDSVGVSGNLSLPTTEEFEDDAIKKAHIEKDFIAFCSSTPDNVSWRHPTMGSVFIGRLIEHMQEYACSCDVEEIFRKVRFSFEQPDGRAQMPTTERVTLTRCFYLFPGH
# Caspase-6 = target: T5, Caspase-6 (Homo sapiens, UniProt P55212)
# T5 sequence (P55212 whole entry): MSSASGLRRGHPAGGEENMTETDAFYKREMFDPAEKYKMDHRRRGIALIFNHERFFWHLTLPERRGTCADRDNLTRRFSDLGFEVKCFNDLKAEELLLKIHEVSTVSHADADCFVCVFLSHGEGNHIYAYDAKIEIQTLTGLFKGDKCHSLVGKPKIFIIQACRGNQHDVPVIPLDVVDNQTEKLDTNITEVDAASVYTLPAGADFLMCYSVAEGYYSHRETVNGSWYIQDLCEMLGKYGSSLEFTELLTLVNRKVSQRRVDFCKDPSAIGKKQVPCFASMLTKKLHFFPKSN
# Caspase-7 = target: T6, Caspase-7 (Homo sapiens, UniProt P55210)
# T6 sequence (P55210 whole entry): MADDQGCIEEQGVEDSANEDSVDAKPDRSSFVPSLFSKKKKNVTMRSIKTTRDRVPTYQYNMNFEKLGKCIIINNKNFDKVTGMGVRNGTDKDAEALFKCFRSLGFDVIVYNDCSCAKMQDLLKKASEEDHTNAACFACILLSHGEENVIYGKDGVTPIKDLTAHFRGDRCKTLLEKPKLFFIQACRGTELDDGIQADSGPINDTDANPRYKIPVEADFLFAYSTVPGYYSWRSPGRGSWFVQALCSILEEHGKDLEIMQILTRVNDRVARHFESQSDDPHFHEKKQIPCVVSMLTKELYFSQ
# Caspase-2 = target: T7, Caspase-2 (Homo sapiens, UniProt P42575)
# T7 sequence (P42575 whole entry): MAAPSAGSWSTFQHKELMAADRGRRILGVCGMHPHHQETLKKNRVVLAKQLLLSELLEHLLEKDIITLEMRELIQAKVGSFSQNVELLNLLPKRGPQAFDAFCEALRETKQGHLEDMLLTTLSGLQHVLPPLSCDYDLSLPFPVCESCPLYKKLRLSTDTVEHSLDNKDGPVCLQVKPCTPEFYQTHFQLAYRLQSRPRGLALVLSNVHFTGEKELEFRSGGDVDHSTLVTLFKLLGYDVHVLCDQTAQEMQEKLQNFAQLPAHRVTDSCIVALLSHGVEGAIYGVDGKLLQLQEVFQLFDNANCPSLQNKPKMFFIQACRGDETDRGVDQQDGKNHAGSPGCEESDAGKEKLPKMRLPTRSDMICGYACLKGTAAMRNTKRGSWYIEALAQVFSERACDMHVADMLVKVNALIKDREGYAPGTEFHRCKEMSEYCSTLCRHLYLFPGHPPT
compound,measurement,setting,value
"O=C1Nc2ccc([N+](=O)[O-])cc2C1=O [5-nitro-2,3-dihydro-1H-indole-2,3-dione]",IC50,"Caspase-3; pH 7.5, 30 °C",3 µM
"O=C1Nc2ccc(S(=O)(=O)N3CCC[C@@H]3CNc3ccccc3)cc2C1=O [5-{[(2R)-2-[(phenylamino)methyl]pyrrolidine-1-]sulfonyl}-2,3-dihydro-1H-indole-2,3-dione]",IC50,Caspase-3,5.5 µM
same,Ki,Caspase-3,12 µM
same,Ki,Caspase-9,> 50 µM
same,Ki,Caspase-8,> 50 µM
same,Ki,Caspase-4,> 50 µM
same,Ki,Caspase-1,> 50 µM
same,Ki,Caspase-6,57 µM
same,Ki,Caspase-7,10 µM
same,Ki,Caspase-2,11 µM
"O=C1Nc2ccc(S(=O)(=O)N3CCC[C@H]3C(=O)Nc3ccccc3)cc2C1=O [(2S)-1-[(2,3-dioxo-2,3-dihydro-1H-indole-5-)sulfonyl]-N-phenylpyrrolidine-2-carboxamide]",IC50,Caspase-3,0.14 µM
CN1C(=O)C(=O)c2cc(S(=O)(=O)N3CCC[C@H]3COc3ccccc3)ccc21 [(S)-1-Methyl-5-{1-[2-(phenoxymethyl)pyrrolidinyl]sulfonyl}isatin],IC50,Caspase-3,0.03 µM
